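Following 48 hours of exposure in 96-well plates, responses at five concentrations were used to interpolate endpoints linearly. TGI marks complete inhibition of growth.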
Tests used:
Assay in all cases: growth of human tumour cells (NCI), 48 h
SNB-19 CNS = tested on: SNB-19 CNS
DU-145 prostate = tested on: DU-145 prostate
LOX IMVI melanoma = tested on: LOX IMVI melanoma
MDA-MB-435 = tested on: MDA-MB-435
NCI-H23 lung = tested on: NCI-H23 lung
HL-60(TB) leukemia = tested on: HL-60(TB) leukemia
RXF 393 renal = tested on: RXF 393 renal
HS 578T breast = tested on: HS 578T breast
NCI-H460 lung = tested on: NCI-H460 lung
OVCAR-3 ovarian = tested on: OVCAR-3 ovarian
T-47D breast = tested on: T-47D breast
SNB-75 CNS = tested on: SNB-75 CNS
MALME-3M melanoma = tested on: MALME-3M melanoma
SW-620 colon = tested on: SW-620 colon
SK-MEL-5 melanoma = tested on: SK-MEL-5 melanoma
HOP-62 NSCLC = tested on: HOP-62 NSCLC
MDA-N = tested on: MDA-N
786-0 renal = tested on: 786-0 renal
CCRF-CEM leukemia = tested on: CCRF-CEM leukemia
SR leukemia = tested on: SR leukemia
A549 NSCLC = tested on: A549 NSCLC
SF-295 CNS = tested on: SF-295 CNS
OVCAR-8 ovarian = tested on: OVCAR-8 ovarian
HCT-116 colon = tested on: HCT-116 colon
HCT-15 colon = tested on: HCT-15 colon
NCI-H226 lung = tested on: NCI-H226 lung
SF-539 CNS = tested on: SF-539 CNS
MOLT-4 leukemia = tested on: MOLT-4 leukemia
UACC-62 melanoma = tested on: UACC-62 melanoma
UACC-257 melanoma = tested on: UACC-257 melanoma
RPMI-8226 leukemia = tested on: RPMI-8226 leukemia
ACHN renal = tested on: ACHN renal
SK-MEL-2 melanoma = tested on: SK-MEL-2 melanoma
SN12C renal = tested on: SN12C renal
HOP-92 NSCLC = tested on: HOP-92 NSCLC
OVCAR-5 ovarian = tested on: OVCAR-5 ovarian
SF-268 CNS = tested on: SF-268 CNS
M14 melanoma = tested on: M14 melanoma
KM12 colon = tested on: KM12 colon
COLO 205 colon = tested on: COLO 205 colon
NCI/ADR-RES ovarian = tested on: NCI/ADR-RES ovarian
CAKI-1 renal = tested on: CAKI-1 renal
OVCAR-4 ovarian = tested on: OVCAR-4 ovarian
PC-3 prostate = tested on: PC-3 prostate
SK-MEL-28 melanoma = tested on: SK-MEL-28 melanoma
IGROV1 ovarian = tested on: IGROV1 ovarian
MDA-MB-231 breast = tested on: MDA-MB-231 breast
MCF7 breast = tested on: MCF7 breast
HT29 colon = tested on: HT29 colon
K-562 leukemia = tested on: K-562 leukemia
HCC-2998 colon = tested on: HCC-2998 colon
EKVX NSCLC = tested on: EKVX NSCLC
BT-549 breast = tested on: BT-549 breast
TK-10 renal = tested on: TK-10 renal
U251 CNS = tested on: U251 CNS
A498 renal = tested on: A498 renal
NCI-H522 lung = tested on: NCI-H522 lung
SK-OV-3 ovarian = tested on: SK-OV-3 ovarian
UO-31 renal = tested on: UO-31 renal

Measured: TGI

Cc1nn(C(=O)c2ccncc2)c2c1C(c1ccc(Cl)cc1)SC(N)=N2 (configuration not stated)
not listed: U251 CNS | A498 renal | NCI-H522 lung | SK-OV-3 ovarian | UO-31 renal
> 10 µM: all other assays above

C=C(C(=O)O)C1CCC(CC/C=C(\C)CC/C=C(\C)CCC=C(C)C)CO1 (configuration not stated)
31.9 µM: HCT-15 colon
24.6 µM: LOX IMVI melanoma
61.8 µM: BT-549 breast
55.6 µM: HOP-62 NSCLC
29.6 µM: RXF 393 renal
32.6 µM: MCF7 breast
79.1 µM: PC-3 prostate
29.3 µM: HT29 colon
28.4 µM: KM12 colon
39.3 µM: IGROV1 ovarian
78.6 µM: U251 CNS
34.3 µM: SN12C renal
13.1 µM: NCI-H226 lung
25.5 µM: M14 melanoma
28.1 µM: 786-0 renal
32.4 µM: A549 NSCLC | SF-539 CNS
27.4 µM: COLO 205 colon
60.4 µM: SK-MEL-2 melanoma
34.1 µM: EKVX NSCLC
39.9 µM: OVCAR-8 ovarian
48.6 µM: NCI-H522 lung
30 µM: UO-31 renal
40.5 µM: NCI-H23 lung
53.7 µM: MDA-MB-435
29.1 µM: SNB-19 CNS
81.8 µM: NCI/ADR-RES ovarian | TK-10 renal
42.8 µM: SF-295 CNS
69.4 µM: HL-60(TB) leukemia
63 µM: MALME-3M melanoma
42.2 µM: DU-145 prostate
17.8 µM: HCT-116 colon
29.5 µM: SK-MEL-28 melanoma
33.4 µM: SW-620 colon
52.9 µM: UACC-257 melanoma
27.8 µM: MDA-N
24.9 µM: SK-MEL-5 melanoma
35.7 µM: OVCAR-5 ovarian
54.4 µM: A498 renal
not listed: NCI-H460 lung | OVCAR-3 ovarian | SR leukemia | MOLT-4 leukemia | RPMI-8226 leukemia | HOP-92 NSCLC | K-562 leukemia | HCC-2998 colon
> 100 µM: all other assays above

O=C1Nc2ccccc2C1Cc1ccc([N+](=O)[O-])cc1 (configuration not stated)
not listed: MALME-3M melanoma | SF-539 CNS | HOP-92 NSCLC | A498 renal
> 100 µM: all other assays above

Cc1cccc2c(=O)c3c(O)cc(O)cc3[nH]c12
not listed: HL-60(TB) leukemia | SR leukemia
> 10 µM: all other assays above

— PubChem BioAssay (NCI)
